{"source": "paper PMC9477273", "about": "(2022)", "tested_on": "biosensor 566229815 (RNA, ribozyme) GGGAAACAAACAAAGCUGUCACUGGAUUUCUUGACGAAUGUGCAGGAAACGGCUCCGGUCUGAUGAGUUCGUGGCGGGACGAAACAGCAAAAAGAAAAA", "assay": "CleaveSeq ribozyme cleavage, deconvolution of 256-compound mixtures", "details": "sub-mM free Mg2+ (chelated by 9 mM rNTPs); 2 μM each compound in mixtures; ligand inferred (\"highly likely\"); 37 °C", "data": [{"smiles": "C=CC[n+]1c(C=C2C=CC=CN2C)sc2ccccc21", "values": [{"measurement": "fold change of cleavage", "value": "> 2", "unit": "fold"}]}]}
